Our source for the MIC values is US20210214303A1, “SCORPION VENOM BENZOQUINONE DERIVATIVES AND USES THEREOF” (priority 2018, published 2021).

≈ marks a conversion by molar mass, not a printed value.

One assay deals with M. tuberculosis. The note with it: related compounds from the literature (Tran et al. 2004); cited from earlier work.
For another assay, the system named is Staphylococcus aureus. The assay is described as follows: broth microdilution assay (MIC). As to conditions: S. aureus, read-out: minimum inhibitory concentration (MIC). The assay is classed as cell-based. As to the method: FIG. 3D illustrates the determination of the minimal inhibitory concentrations (MICs) of the red and blue 1,4 benzoquinones against Staphylococcus aureus. The MICs determined by the broth microdilution assay are 4 μg/mL for the red 1,4 benzoquinone and 6 μg/mL for the blue 1,4 benzoquinone. Ampicillin was used as a positive control. Each result is reported as the mean±SD.
This difference was confirmed using a broth microdilution assay (FIG. 3D). The minimum inhibitory concentration (MIC) for S. aureus growth was 4 μg/mL for the red 1,4 benzoquinone and 6 μg/mL for the blue 1,4 benzoquinone (FIG. 3D, Table 1). Ampicillin (MIC=0.5 μg/mL) was used as a positive control (ESCMID Eo (2003) Clin. Microbiol. Infect. 9: ix-xv; Pieterse et al., (2010) Brazil. J. Microbiol. 41: 133-145). These compounds were bactericidal at their MICs, killing 90% of S. aureus in 6 h and 99.9% in 24 h (Table 2).

On to `O=C1C=CC(=O)C=C1` [1,4-benzoquinone], for which the MIC in the assay with M. tuberculosis was 25 µg/mL (≈ 231 µM). With `O=C1C=CC(=O)c2ccccc21` [1,4-napthoquinone], in the assay on M. tuberculosis, the MIC is 100 µg/mL (≈ 632 µM). As for `CC1(C)S[C@@H]2[C@H](NC(=O)[C@H](N)c3ccccc3)C(=O)N2[C@H]1C(=O)O` [Ampicillin, reference compound], the MIC with Staphylococcus aureus amounted to 0.5 µg/mL (≈ 1.43 µM).
